Laboratory results as given in PubChem BioAssay AID2060611 (Molecular Pharmacology Branch, DTP, NCI, 2025).

System: 628569-122-R-J1-PDC complex spheroid viability
Test: Anticancer human tumor 628569-122-R-J1-PDC patient-derived head and neck squamous carcinoma cell line growth inhibition [CLK]
Settings: for IC50: curve of first compound; for viability, T/C: stronger effect = lower value
Procedure, shortened: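 Patient-derived tumor cells grown as complex spheroids with HUVEC endothelial cells and mesenchymal stem cells, treated with drug combinations. Concentrations descend in half-log steps from near clinical Cmax, or from 10 microM if Cmax unknown.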

[1] = second compound 0.0316 µM, first compound 0.0316 µM
[2] = second compound 0.0316 µM, first compound 0.1 µM
[3] = second compound 0.0316 µM, first compound 0.316 µM
[4] = second compound 0.0316 µM, first compound 1 µM
[5] = second compound 0.0316 µM, first compound 3.16 µM
[6] = second compound 0.0316 µM, first compound 10 µM
[7] = second compound 0.1 µM, first compound 0.0316 µM
[8] = second compound 0.1 µM, first compound 0.1 µM
[9] = second compound 0.1 µM, first compound 0.316 µM
[10] = second compound 0.1 µM, first compound 1 µM
[11] = second compound 0.1 µM, first compound 3.16 µM
[12] = second compound 0.1 µM, first compound 10 µM
[13] = second compound 0.316 µM, first compound 0.0316 µM
[14] = second compound 0.316 µM, first compound 0.1 µM
[15] = second compound 0.316 µM, first compound 0.316 µM
[16] = second compound 0.316 µM, first compound 1 µM
[17] = second compound 0.316 µM, first compound 3.16 µM
[18] = second compound 0.316 µM, first compound 10 µM
[19] = second compound 1 µM, first compound 0.0316 µM
[20] = second compound 1 µM, first compound 0.1 µM
[21] = second compound 1 µM, first compound 0.316 µM
[22] = second compound 1 µM, first compound 1 µM
[23] = second compound 1 µM, first compound 3.16 µM
[24] = second compound 1 µM, first compound 10 µM
[25] = second compound 3.16 µM, first compound 0.0316 µM
[26] = second compound 3.16 µM, first compound 0.1 µM
[27] = second compound 3.16 µM, first compound 0.316 µM
[28] = second compound 3.16 µM, first compound 1 µM
[29] = second compound 3.16 µM, first compound 3.16 µM
[30] = second compound 3.16 µM, first compound 10 µM
[31] = second compound 10 µM, first compound 0.0316 µM
[32] = second compound 10 µM, first compound 0.1 µM
[33] = second compound 10 µM, first compound 0.316 µM
[34] = second compound 10 µM, first compound 1 µM
[35] = second compound 10 µM, first compound 3.16 µM
[36] = second compound 10 µM, first compound 10 µM
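Note: spheroids exposed to agents for seven days before readout.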
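Throughout, for viability, T/C: 100% = DMSO vehicle control viability.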

## CC(=O)O[C@H]1C(=O)[C@@]2(C)[C@H]([C@H](OC(=O)c3ccccc3)[C@]3(O)C[C@H](OC(=O)[C@H](O)[C@@H](NC(=O)c4ccccc4)c4ccccc4)C(C)=C1C3(C)C)[C@]1(OC(C)=O)CO[C@@H]1C[C@@H]2O + CN1CCN(c2cc(C(=O)Nc3cc4cc(-c5cnn(C)c5)ccc4cn3)ccn2)CC1
Second compound 0.0316 µM
  IC50: < 31.6 nM
Second compound 0.1 µM
  IC50: < 31.6 nM
Second compound 0.316 µM
  IC50: < 31.6 nM
Second compound 1 µM
  IC50: < 31.6 nM
Second compound 3.16 µM
  IC50: < 31.6 nM
Second compound 10 µM
  IC50: < 31.6 nM
[1]
  viability, T/C: 39.9%
[2]
  viability, T/C: 34.4%
[3]
  viability, T/C: 38%
[4]
  viability, T/C: 41%
[5]
  viability, T/C: 41.6%
[6]
  viability, T/C: 54%
[7]
  viability, T/C: 37.5%
[8]
  viability, T/C: 33.4%
[9]
  viability, T/C: 39.5%
[10]
  viability, T/C: 42.7%
[11]
  viability, T/C: 47.2%
[12]
  viability, T/C: 67.3%
[13]
  viability, T/C: 33.2%
[14]
  viability, T/C: 41.9%
[15]
  viability, T/C: 41.7%
[16]
  viability, T/C: 41%
[17]
  viability, T/C: 33.7%
[18]
  viability, T/C: 49.4%
[19]
  viability, T/C: 4.9%
[20]
  viability, T/C: 5.86%
[21]
  viability, T/C: 4.18%
[22]
  viability, T/C: 3.31%
[23]
  viability, T/C: 3.36%
[24]
  viability, T/C: 4.26%
[25]
  viability, T/C: 5.69%
[26]
  viability, T/C: 4.99%
[27]
  viability, T/C: 6.92%
[28]
  viability, T/C: 3.95%
[29]
  viability, T/C: 5.22%
[30]
  viability, T/C: 3.46%
[31]
  viability, T/C: 1.88%
[32]
  viability, T/C: 4.8%
[33]
  viability, T/C: 3.63%
[34]
  viability, T/C: 4.24%
[35]
  viability, T/C: 3.42%
[36]
  viability, T/C: 1.77%

## COc1cccc2c1C(=O)c1c(O)c3c(c(O)c1C2=O)CC(O)(C(=O)CO)CC3OC1CC(N)C(O)C(C)O1 (stereo unspecified) + CNC(=O)c1ccc(Nc2nc(OC3CCCC3)c3c(-c4ccc5nc(C)oc5c4)c[nH]c3n2)c(OC)c1
Second compound 0.0316 µM
  IC50: 479 nM
Second compound 0.1 µM
  IC50: 446 nM
Second compound 0.316 µM
  IC50: 373 nM
Second compound 1 µM
  IC50: 31.6 nM
Second compound 3.16 µM
  IC50: < 31.6 nM
Second compound 10 µM
  IC50: < 31.6 nM
[1]
  viability, T/C: 65.1%
[2]
  viability, T/C: 56.3%
[3]
  viability, T/C: 88.3%
[4]
  viability, T/C: 12.9%
[5]
  viability, T/C: 19.5%
[6]
  viability, T/C: 11.4%
[7]
  viability, T/C: 49.7%
[8]
  viability, T/C: 62.8%
[9]
  viability, T/C: 91.8%
[10]
  viability, T/C: 5.99%
[11]
  viability, T/C: 11.4%
[12]
  viability, T/C: 5.02%
[13]
  viability, T/C: 47%
[14]
  viability, T/C: 47.1%
[15]
  viability, T/C: 75.8%
[16]
  viability, T/C: 9.78%
[17]
  viability, T/C: 17.6%
[18]
  viability, T/C: 4.53%
[19]
  viability, T/C: 39.9%
[20]
  viability, T/C: 47.9%
[21]
  viability, T/C: 58.3%
[22]
  viability, T/C: 7.25%
[23]
  viability, T/C: 14.1%
[24]
  viability, T/C: 5.15%
[25]
  viability, T/C: 43.2%
[26]
  viability, T/C: 52.5%
[27]
  viability, T/C: 50.3%
[28]
  viability, T/C: 9.3%
[29]
  viability, T/C: 10.3%
[30]
  viability, T/C: 5.46%
[31]
  viability, T/C: 41%
[32]
  viability, T/C: 48.8%
[33]
  viability, T/C: 47.9%
[34]
  viability, T/C: 6.06%
[35]
  viability, T/C: 11.8%
[36]
  viability, T/C: 6.29%

## O=c1[nH]cc(F)c(=O)[nH]1 + CNC(=O)c1ccc(Nc2nc(OC3CCCC3)c3c(-c4ccc5nc(C)oc5c4)c[nH]c3n2)c(OC)c1
Second compound 0.0316 µM
  IC50: > 10000 nM
Second compound 0.1 µM
  IC50: > 10000 nM
Second compound 0.316 µM
  IC50: > 10000 nM
Second compound 1 µM
  IC50: < 31.6 nM
Second compound 3.16 µM
  IC50: < 31.6 nM
Second compound 10 µM
  IC50: < 31.6 nM
[1]
  viability, T/C: 108%
[2]
  viability, T/C: 99.2%
[3]
  viability, T/C: 101%
[4]
  viability, T/C: 84.8%
[5]
  viability, T/C: 72.9%
[6]
  viability, T/C: 60.6%
[7]
  viability, T/C: 59.1%
[8]
  viability, T/C: 52.6%
[9]
  viability, T/C: 62.2%
[10]
  viability, T/C: 52.7%
[11]
  viability, T/C: 60.4%
[12]
  viability, T/C: 49.8%
[13]
  viability, T/C: 50.9%
[14]
  viability, T/C: 60.5%
[15]
  viability, T/C: 52.4%
[16]
  viability, T/C: 54%
[17]
  viability, T/C: 60.3%
[18]
  viability, T/C: 47.8%
[19]
  viability, T/C: 43.5%
[20]
  viability, T/C: 50.4%
[21]
  viability, T/C: 41.6%
[22]
  viability, T/C: 52.3%
[23]
  viability, T/C: 54.7%
[24]
  viability, T/C: 47.7%
[25]
  viability, T/C: 44.9%
[26]
  viability, T/C: 44.9%
[27]
  viability, T/C: 48.8%
[28]
  viability, T/C: 48.8%
[29]
  viability, T/C: 48.8%
[30]
  viability, T/C: 35.6%
[31]
  viability, T/C: 45.4%
[32]
  viability, T/C: 37.9%
[33]
  viability, T/C: 46%
[34]
  viability, T/C: 46%
[35]
  viability, T/C: 47.5%
[36]
  viability, T/C: 45.3%
